{"source": "patent US20240150325A1", "about": "“NOVEL COMPOUND AS PROTEIN KINASE INHIBITORS” (LG CHEM, LTD., priority 2021, published 2024)", "key": {"[1]": {"target": "MET (Homo sapiens, UniProt P08581)", "sequence (P08581 25-1390)": "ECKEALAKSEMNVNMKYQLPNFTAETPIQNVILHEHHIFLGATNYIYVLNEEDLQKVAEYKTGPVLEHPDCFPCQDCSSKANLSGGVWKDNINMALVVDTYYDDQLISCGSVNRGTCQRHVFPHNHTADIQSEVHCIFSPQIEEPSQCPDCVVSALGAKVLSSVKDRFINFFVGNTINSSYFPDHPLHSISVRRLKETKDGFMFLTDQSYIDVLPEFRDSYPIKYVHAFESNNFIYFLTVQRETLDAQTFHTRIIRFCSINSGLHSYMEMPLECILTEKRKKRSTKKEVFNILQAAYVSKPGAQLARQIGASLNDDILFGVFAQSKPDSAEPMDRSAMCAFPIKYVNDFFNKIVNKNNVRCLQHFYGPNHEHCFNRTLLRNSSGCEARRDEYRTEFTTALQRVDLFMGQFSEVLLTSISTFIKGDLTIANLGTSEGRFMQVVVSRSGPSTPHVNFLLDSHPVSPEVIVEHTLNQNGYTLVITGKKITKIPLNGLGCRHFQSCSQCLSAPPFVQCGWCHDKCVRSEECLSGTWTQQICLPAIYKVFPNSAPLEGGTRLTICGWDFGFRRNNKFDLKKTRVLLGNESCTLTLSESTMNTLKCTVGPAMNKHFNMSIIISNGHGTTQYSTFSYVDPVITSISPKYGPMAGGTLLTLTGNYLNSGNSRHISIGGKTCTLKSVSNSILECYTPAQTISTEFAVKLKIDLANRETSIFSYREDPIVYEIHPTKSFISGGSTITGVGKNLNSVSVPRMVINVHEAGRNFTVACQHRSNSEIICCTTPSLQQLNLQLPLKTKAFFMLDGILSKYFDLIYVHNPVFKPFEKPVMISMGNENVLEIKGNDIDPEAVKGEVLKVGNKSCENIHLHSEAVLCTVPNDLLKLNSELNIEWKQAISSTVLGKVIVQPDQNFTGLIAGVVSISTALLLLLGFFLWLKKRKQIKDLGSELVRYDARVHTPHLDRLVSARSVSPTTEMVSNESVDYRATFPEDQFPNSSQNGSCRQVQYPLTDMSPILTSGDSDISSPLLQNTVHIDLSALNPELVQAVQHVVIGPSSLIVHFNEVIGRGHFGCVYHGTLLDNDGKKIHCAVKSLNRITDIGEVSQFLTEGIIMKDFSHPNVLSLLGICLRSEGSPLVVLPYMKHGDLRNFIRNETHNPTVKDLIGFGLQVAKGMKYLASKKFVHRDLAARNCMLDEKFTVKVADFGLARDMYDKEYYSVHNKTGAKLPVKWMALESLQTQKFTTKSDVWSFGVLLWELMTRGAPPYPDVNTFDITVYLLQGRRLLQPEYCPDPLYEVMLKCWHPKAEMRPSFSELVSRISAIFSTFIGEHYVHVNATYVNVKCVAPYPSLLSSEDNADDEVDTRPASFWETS", "assay": "Evaluation of inhibitory activity to MET", "type": "biochemical", "from_the_text": "(§1) Experimental Example 1. Evaluation of Inhibitory Activity to RON and MET"}, "[2]": {"target": "RON (Homo sapiens, UniProt Q04912)", "sequence (Q04912 25-1400)": "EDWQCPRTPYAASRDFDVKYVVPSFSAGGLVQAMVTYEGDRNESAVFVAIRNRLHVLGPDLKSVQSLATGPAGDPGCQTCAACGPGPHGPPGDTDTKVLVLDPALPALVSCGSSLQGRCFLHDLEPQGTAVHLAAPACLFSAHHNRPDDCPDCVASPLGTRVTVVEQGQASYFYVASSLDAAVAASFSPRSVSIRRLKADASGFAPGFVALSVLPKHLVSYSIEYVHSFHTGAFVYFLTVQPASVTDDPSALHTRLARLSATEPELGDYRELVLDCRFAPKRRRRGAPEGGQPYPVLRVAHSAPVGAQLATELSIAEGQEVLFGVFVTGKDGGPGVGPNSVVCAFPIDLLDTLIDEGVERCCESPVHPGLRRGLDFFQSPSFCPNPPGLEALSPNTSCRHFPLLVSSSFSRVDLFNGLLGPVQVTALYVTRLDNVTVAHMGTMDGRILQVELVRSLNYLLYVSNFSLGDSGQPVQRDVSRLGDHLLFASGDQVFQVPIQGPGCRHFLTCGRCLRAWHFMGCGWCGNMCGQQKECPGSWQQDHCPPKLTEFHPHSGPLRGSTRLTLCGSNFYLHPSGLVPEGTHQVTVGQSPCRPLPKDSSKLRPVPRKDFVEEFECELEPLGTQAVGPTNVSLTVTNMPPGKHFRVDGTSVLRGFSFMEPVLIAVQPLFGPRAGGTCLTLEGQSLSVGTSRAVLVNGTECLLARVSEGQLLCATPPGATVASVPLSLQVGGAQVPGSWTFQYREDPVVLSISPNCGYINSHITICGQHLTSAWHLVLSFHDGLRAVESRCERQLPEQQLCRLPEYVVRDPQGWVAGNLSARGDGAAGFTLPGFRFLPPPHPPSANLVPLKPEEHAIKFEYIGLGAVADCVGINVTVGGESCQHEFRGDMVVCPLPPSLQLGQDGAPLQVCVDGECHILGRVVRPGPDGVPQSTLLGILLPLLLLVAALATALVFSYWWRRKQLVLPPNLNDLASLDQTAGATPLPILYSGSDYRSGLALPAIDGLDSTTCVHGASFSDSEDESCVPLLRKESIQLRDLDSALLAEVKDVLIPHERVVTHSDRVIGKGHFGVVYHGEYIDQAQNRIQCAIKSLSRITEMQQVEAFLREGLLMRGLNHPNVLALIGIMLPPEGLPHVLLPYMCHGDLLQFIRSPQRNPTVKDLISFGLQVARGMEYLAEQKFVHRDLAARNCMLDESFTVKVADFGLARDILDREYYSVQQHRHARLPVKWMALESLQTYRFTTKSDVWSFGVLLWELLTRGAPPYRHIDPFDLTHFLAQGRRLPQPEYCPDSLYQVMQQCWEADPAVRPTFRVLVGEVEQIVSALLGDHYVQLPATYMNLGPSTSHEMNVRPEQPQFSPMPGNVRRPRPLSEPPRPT", "assay": "Evaluation of inhibitory activity to RON", "type": "biochemical", "from_the_text": "as §1"}}}
{"smiles": "CCOc1ccn(-c2ccc(F)cc2)c(=O)c1C(=O)Nc1ccc(-c2ccc(O)c(-c3ccnc(N)n3)c2)c(F)c1", "note": "[Example 1, N-(3′-(2-aminopyrimidin-4-yl)-2-fluoro-4′-hydroxy-[1,1′-biphenyl]-4-yl)-4-ethoxy-1-(4-fluorophenyl)-2-oxo-1,2-dihydropyridin-3-carboxamide]", "values": [{"measurement": "IC50", "setting": "[1]", "result": 612, "unit": "nM"}, {"measurement": "IC50", "setting": "[2]", "result": 144, "unit": "nM"}]}
{"smiles": "COc1ccn(-c2ccc(F)cc2)c(=O)c1C(=O)Nc1ccc(-c2ccc(O)c(-c3ccnc(N)n3)c2)c(F)c1", "note": "[Example 2, N-(3′-(2-aminopyrimidin-4-yl)-2-fluoro-4′-hydroxy-[1,1′-biphenyl]-4-yl)-1-(4-fluorophenyl)-4-methoxy-2-oxo-1,2-dihydropyridin-3-carboxamide]", "values": [{"measurement": "IC50", "setting": "[1]", "result": 583, "unit": "nM"}, {"measurement": "IC50", "setting": "[2]", "result": 131, "unit": "nM"}]}
{"smiles": "Cn1cc(-c2cc(C(=O)Nc3ccc(-c4ccc(O)c(-c5ccnc(N)n5)c4)c(F)c3)c(=O)n(-c3ccc(F)cc3)c2)cn1", "note": "[Example 7, N-(3′-(2-aminopyrimidin-4-yl)-2-fluoro-4′-hydroxy-[1,1′-biphenyl]-4-yl)-1-(4-fluorophenyl)-5-(1-methyl-1H-pyrazol-4-yl)-2-oxo-1,2-dihydropyridin-3-carboxamide]", "values": [{"measurement": "IC50", "setting": "[1]", "result": 2230, "unit": "nM"}, {"measurement": "IC50", "setting": "[2]", "result": 942, "unit": "nM"}]}
{"smiles": "Nc1nccc(-c2cc(-c3ccc(NC(=O)c4cc(C5CC5)cn(-c5ccc(F)cc5)c4=O)cc3F)ccc2O)n1", "note": "[Example 8]", "values": [{"measurement": "IC50", "setting": "[1]", "result": 2090, "unit": "nM"}, {"measurement": "IC50", "setting": "[2]", "result": 834, "unit": "nM"}]}
{"smiles": "Nc1nccc(-c2cc(-c3ccc(NC(=O)c4ccc(CO)n(-c5ccc(F)cc5)c4=O)cc3F)ccc2O)n1", "note": "[Example 10, N-(3′-(2-aminopyrimidin-4-yl)-2-fluoro-4′-hydroxy-[1,1′-biphenyl]-4-yl)-1-(4-fluorophenyl)-6-(hydroxymethyl)-2-oxo-1,2-dihydropyridin-3-carboxamide]", "values": [{"measurement": "IC50", "setting": "[1]", "result": 1710, "unit": "nM"}, {"measurement": "IC50", "setting": "[2]", "result": 855, "unit": "nM"}]}
{"smiles": "CCOc1ccn(-c2ccc(F)cc2)c(=O)c1C(=O)Nc1ccc(-c2ccc(O)c(-c3ccnc(N)n3)c2)c(C)c1", "note": "[Example 13, N-(3′-(2-aminopyrimidin-4-yl)-4′-hydroxy-2-methyl-[1,1′-biphenyl]-4-yl)-4-ethoxy-1-(4-fluorophenyl)-2-oxo-1,2-dihydropyridin-3-carboxamide]", "values": [{"measurement": "IC50", "setting": "[1]", "result": 2940, "unit": "nM"}, {"measurement": "IC50", "setting": "[2]", "result": 1330, "unit": "nM"}]}
{"smiles": "CCOc1ccn(-c2ccc(F)cc2)c(=O)c1C(=O)Nc1ccc(-c2ccc(OC)c(-c3cnc(N)nc3)c2)c(F)c1", "note": "[Example 17, N-(3′-(2-aminopyrimidin-5-yl)-2-fluoro-4′-methoxy-[1,1′-biphenyl]-4-yl)-4-ethoxy-1-(4-fluorophenyl)-2-oxo-1,2-dihydropyridin-3-carboxamide]", "values": [{"measurement": "IC50", "setting": "[1]", "result": "> 10000", "unit": "nM"}, {"measurement": "IC50", "setting": "[2]", "result": 2300, "unit": "nM"}]}
{"smiles": "CCOc1ccn(-c2ccc(F)cc2)c(=O)c1C(=O)Nc1ccc(Nc2ccc(O)c(-c3ccnc(N)n3)c2)c(F)c1", "note": "[Example 28, N-(4-((3-(2-aminopyrimidin-4-yl)-4-hydroxyphenyl)amino)-3-fluorophenyl)-4-ethoxy-1-(4-fluorophenyl)-2-oxo-1,2-dihydropyridin-3-carboxamide]", "values": [{"measurement": "IC50", "setting": "[1]", "result": 180, "unit": "nM"}, {"measurement": "IC50", "setting": "[2]", "result": 1170, "unit": "nM"}]}
{"smiles": "Cc1ccc(C(=O)Nc2ccc(Nc3ccc(O)c(-c4ccnc(N)n4)c3)c(F)c2)c(=O)n1-c1ccc(F)cc1", "note": "[Example 30, N-(4-((3-(2-aminopyrimidin-4-yl)-4-hydroxyphenyl)amino)-3-fluorophenyl)-1-(4-fluorophenyl)-6-methyl-2-oxo-1,2-dihydropyridin-3-carboxamide]", "values": [{"measurement": "IC50", "setting": "[1]", "result": 49, "unit": "nM"}, {"measurement": "IC50", "setting": "[2]", "result": 248, "unit": "nM"}]}
{"smiles": "CCOc1ccn(-c2ccc(F)cc2)c(=O)c1C(=O)Nc1ccc(Nc2ccc(O)c(-c3ccnc(N)n3)c2)cc1F", "note": "[Example 34, N-(4-((3-(2-aminopyrimidin-4-yl)-4-hydroxyphenyl)amino)-2-fluorophenyl)-4-ethoxy-1-(4-fluorophenyl)-2-oxo-1,2-dihydropyridin-3-carboxamide]", "values": [{"measurement": "IC50", "setting": "[1]", "result": 552, "unit": "nM"}, {"measurement": "IC50", "setting": "[2]", "result": 2280, "unit": "nM"}]}
{"smiles": "CC(=O)c1cc(Oc2ccc(NC(=O)c3ccc(C)n(-c4ccc(F)cc4)c3=O)cc2F)ccc1O", "note": "[Example 37, N-(4-(3-acetyl-4-hydroxyphenoxy)-3-fluorophenyl)-1-(4-fluorophenyl)-6-methyl-2-oxo-1,2-dihydropyridin-3-carboxamide]", "values": [{"measurement": "IC50", "setting": "[1]", "result": 954, "unit": "nM"}]}
{"smiles": "C/C(=N\\O)c1cc(Oc2ccc(NC(=O)c3ccc(C)n(-c4ccc(F)cc4)c3=O)cc2F)ccc1O", "note": "[Example 38, (E)-N-(3-fluoro-4-(4-hydroxy-3-(1-(hydroxyimino)ethyl)phenoxy)phenyl)-1-(4-fluorophenyl)-6-methyl-2-oxo-1,2-dihydropyridin-3-carboxamide]", "values": [{"measurement": "IC50", "setting": "[1]", "result": 354, "unit": "nM"}]}
{"smiles": "CCOc1ccn(-c2ccc(F)cc2)c(=O)c1C(=O)Nc1ccc(Oc2ccc(O)c(-c3ccnc(N)n3)c2)c(F)c1", "note": "[Example 39, N-(4-(3-(2-aminopyrimidin-4-yl)-4-hydroxyphenoxy)-3-fluorophenyl)-4-ethoxy-1-(4-fluorophenyl)-2-oxo-1,2-dihydropyridin-3-carboxamide]", "values": [{"measurement": "IC50", "setting": "[1]", "result": 27, "unit": "nM"}, {"measurement": "IC50", "setting": "[2]", "result": 86, "unit": "nM"}]}
{"smiles": "Cc1ccc(C(=O)Nc2ccc(Oc3ccc(O)c(-c4ccnc(N)n4)c3)c(F)c2)c(=O)n1-c1ccc(F)cc1", "note": "[Example 40, N-(4-(3-(2-aminopyrimidin-4-yl)-4-hydroxyphenoxy)-3-fluorophenyl)-1-(4-fluorophenyl)-6-methyl-2-oxo-1,2-dihydropyridin-3-carboxamide]", "values": [{"measurement": "IC50", "setting": "[1]", "result": 4, "unit": "nM"}]}
{"smiles": "Nc1nccc(-c2cc(Oc3ccc(NC(=O)C4(C(=O)Nc5ccc(F)cc5)CC4)cc3F)ccc2O)n1", "note": "[Example 41, N-(4-(3-(2-aminopyrimidin-4-yl)-4-hydroxyphenoxy)-3-fluorophenyl)-N-(4-fluorophenyl)cyclopropan-1,1-dicarboxamide]", "values": [{"measurement": "IC50", "setting": "[1]", "result": 71, "unit": "nM"}, {"measurement": "IC50", "setting": "[2]", "result": 362, "unit": "nM"}]}
{"smiles": "COc1ccn(-c2ccc(F)cc2)c(=O)c1C(=O)Nc1ccc(Oc2ccc(O)c(-c3ccnc(N)n3)c2)c(F)c1", "note": "[Example 42, N-(4-(3-(2-aminopyrimidin-4-yl)-4-hydroxyphenoxy)-3-fluorophenyl)-1-(4-fluorophenyl)-4-methoxy-2-oxo-1,2-dihydropyridin-3-carboxamide]", "values": [{"measurement": "IC50", "setting": "[1]", "result": 53, "unit": "nM"}, {"measurement": "IC50", "setting": "[2]", "result": 355, "unit": "nM"}]}
{"smiles": "Cc1c(C(=O)Nc2ccc(Oc3ccc(O)c(-c4ccnc(N)n4)c3)c(F)c2)c(=O)n(-c2ccccc2)n1C", "note": "[Example 43, N-(4-(3-(2-aminopyrimidin-4-yl)-4-hydroxyphenoxy)-3-fluorophenyl)-1,5-dimethyl-3-oxo-2-phenyl-2,3-dihydro-1H-pyrazol-4-carboxamide]", "values": [{"measurement": "IC50", "setting": "[1]", "result": 48, "unit": "nM"}, {"measurement": "IC50", "setting": "[2]", "result": 279, "unit": "nM"}]}
{"smiles": "Nc1nccc(-c2cc(Oc3ccc(NC(=O)c4cc(Br)cn(-c5ccc(F)cc5)c4=O)cc3F)ccc2O)n1", "note": "[Example 44, N-(4-(3-(2-aminopyrimidin-4-yl)-4-hydroxyphenoxy)-3-fluorophenyl)-5-bromo-1-(4-fluorophenyl)-2-oxo-1,2-dihydropyridin-3-carboxamide]", "values": [{"measurement": "IC50", "setting": "[1]", "result": 46, "unit": "nM"}, {"measurement": "IC50", "setting": "[2]", "result": 137, "unit": "nM"}]}
{"smiles": "Nc1nccc(-c2cc(Oc3ccc(NC(=O)c4cccn(-c5ccc(F)cc5)c4=O)cc3F)ccc2O)n1", "note": "[Example 46, N-(4-(3-(2-aminopyrimidin-4-yl)-4-hydroxyphenoxy)-3-fluorophenyl)-1-(4-fluorophenyl)-2-oxo-1,2-dihydropyridin-3-carboxamide]", "values": [{"measurement": "IC50", "setting": "[1]", "result": 54, "unit": "nM"}, {"measurement": "IC50", "setting": "[2]", "result": 241, "unit": "nM"}]}
{"smiles": "Cn1cc(-c2cc(C(=O)Nc3ccc(Oc4ccc(O)c(-c5ccnc(N)n5)c4)c(F)c3)c(=O)n(-c3ccc(F)cc3)c2)cn1", "note": "[Example 47, N-(4-(3-(2-aminopyrimidin-4-yl)-4-hydroxyphenoxy)-3-fluorophenyl)-1-(4-fluorophenyl)-5-(1-methyl-1H-pyrazol-4-yl)-2-oxo-1,2-dihydropyridin-3-carboxamide]", "values": [{"measurement": "IC50", "setting": "[1]", "result": 179, "unit": "nM"}, {"measurement": "IC50", "setting": "[2]", "result": 882, "unit": "nM"}]}
